Measured values taken from patent publication EP2785358B1, “INSULIN-MIMETICS AS THERAPEUTIC ADJUNCTS FOR BONE REGENERATION” (priority 2011, dated 2013).
Several values for one entry are separate records, joined by “and”; a condition that tells them apart may be missing. Identical values can stand only once. Like-named read-outs stand apart in the source and are kept apart here. Marks after values point to notes of the source that are not given here.

Tests used:
femur fractures [1] = system: femur fractures; design: Percent Effective Shear Modulus / Percent Effective Shear Stress: scale not given: direction of the effect not stated beside the values; details: for Effective Shear Modulus / Effective Shear Stress / Maximum Torque to Failure / Maximum Torsional Rigidity / Percent Effective Shear Modulus / Percent Effective Shear Stress / Percent Maximum Torque to Failure / Percent maximum torsional rigidity: no carrier, 4 weeks post-fracture; for effective shear stress, times higher than control: four weeks post-fracture
Experimental: Zinc Chloride [(ZnCl2), Sigma Aldrich, St. Louis, MO] mixed with a buffer was injected into the intramedullary canal prior to fracture. The buffer consisted of sodium acetate, sodium chloride methyl hydroxybenzoate, and zinc chloride. Doses of 1.0 mg/kg and 3.0 mg/kg zinc chloride were tested and administered at a volume of 0.1mL.
Fractured and contralateral femora were resected at three and four weeks post-fracture. Femora were cleaned of soft tissue and the intramedullary rod was removed. Samples were wrapped in saline (0.9% NaCl) soaked gauze and stored at -20 °C. Prior to testing, all femora were removed from the freezer and allowed to thaw to room temperature for three to four hours. The proximal and distal ends of the fractured and contralateral femora were embedded in ¾ inch square nuts with Field's Metal, leaving an approximate gauge length of 18 mm (Figure 2). After measuring callus, gauge length and femur dimensions, torsional testing was conducted using a servohydraulics machine (MTS Systems Corp., Eden Prairie, MN) with a 20 Nmm reaction torque cell (Interface, Scottsdale, AZ) and tested to failure at a rate of 2.0 deg/sec. The maximum torque to failure and angle to failure were determined from the force to angular displacement data.
Maximum torque to failure and maximum torsional rigidity are considered extrinsic properties while shear modulus and maximum shear stress are considered intrinsic properties. […] Maximum torsional rigidity is a function of the maximum torque to failure, gauge length (distance of the exposed femur between the embedded proximal and distal end) and angular displacement. Maximum shear stress is a function of the maximum torque to failure, maximum radius within the mid-diaphyseal region and the polar moment of inertia. The polar moment of inertia was calculated by modeling the femur as a hollow ellipse.
In order to compare the biomechanical parameters between different treatment groups, the data was normalized by dividing each fractured femur value by its corresponding intact, contralateral femur value (Figure 2). Normalization was used to minimize biological variability due to differences in age and weight among rats.
Zinc chloride (ZnCl2), Sigma Aldrich, St. Louis, MO, mixed with sterile water at various doses with or without a calcium sulfate carrier, were injected into the intramedullary canal prior to fracture. Doses of ZnCl2 were not based on each animal's body weight, but on a lower theoretically tolerable dose for a 290-gram BB Wistar rat, which would not elicit heavy metal poisoning or behavioral changes. This weight is over 50 grams lower than the average weight of non-diabetic BB Wistar rats at an age of approximately 90 days (the age of investigation in this study).

femur fractures [2] = details: zinc chloride 3.0 mg/kg
Source text: The fractured femora were resected at seven days post-fracture, decalcified, dehydrated, embedded in paraffin, and sectioned using standard histological techniques. Sections were stained with Masson's Trichrome (Accustain™ Trichrome Staining kit, Sigma Diagnostics, St. Louis, MO) for histological observation using an Olympus BH2-RFCA microscope (Olympus Optical Co., Ltd., Shinjuku-ku, Tokyo, Japan). Digital images were collected using a Nikon DXM1200F digital camera (Nikon, Tokyo, Japan). Cartilage, new bone, and total callus area were measured from the digital images using Image-Pro Plus software (version 5, Media Cybernetics, Inc., Silver Spring, MD). Total cartilage and new bone area were normalized to total callus area and expressed as the percent area. Two independent reviewers were used to minimize inconsistencies.
This includes dehydration, soaking in Xylenes, and finally pre-embedding in a layer of Polymethylmethacrylate (PMMA). After embedding in pure PMMA and allowed to solidify in a hot water bath, slides were sectioned from the PMMA blocks, polished, and stained with a combination of Stevenel's blue and Van Gieson picro-fuchsin (SVG). Histological images of fracture calluses were obtained using an Olympus SZX12 upright microscope (Olympus Optical Co, LTD, Japan) connected via a CCD camera (Optronics, Goleta, California) to a personal computer and analyzed with the Bioquant software package (Biometrics, Inc, Nashville, TN). Parameters that were compared include a) callus area, b) percent calcified tissue area, and c) percent cartilage area. Limitations of this procedure include production of slides with high thicknesses, due to the difficulties associated with sectioning PMMA. This limits the number of possible sections that may be cut for staining in addition to analysis of cellular morphology, due to overlapping layers of cells.

[3] = rat, in vivo
Experimental: Doses of ZnCl2 were not based on each animal's body weight, but on a lower theoretically tolerable dose for a 290-gram BB Wistar rat, which would not elicit heavy metal poisoning or behavioral changes. […] A 0.1 ml volume of the ZnCl2 solution was administered locally via a single injection into the marrow space for each dose examined.
However, animals amongst treatment groups were age and sex matched for each experiment.

femur fractures [4] = details: no carrier
Experimental: Under the same anesthesia as described above, the rats were positioned prone and lateral and anteroposterior (AP) radiographs of their femurs were obtained. […] Exposures were for 30 seconds at 55 kVp. Magnified radiographs were obtained of resected femurs. Qualitative analysis was performed on all radiographic sample at four weeks post-fracture. […] Treatment group averages were computed to estimate healing at 4 weeks post-fracture.

[5] = system: posterolateral lumbar fusion (L4-L5); assay: Spinal fusion: manual palpation; details: n=10, eight weeks
[6] = system: posterolateral lumbar fusion (L4-L5); assay: Spinal fusion: MicroCT bone volume; details: L4/L5 transverse processes and fusion mass, eight weeks
[7] = system: posterolateral lumbar fusion (L4-L5); assay: Spinal fusion: radiographic analysis; details: n=10, eight weeks
[8] = ZnCl2 0.1 mg/kg local, normalized to intact femur
[9] = ZnCl2 1.0 mg/kg local, normalized to intact femur
[10] = ZnCl2 3.0 mg/kg local, normalized to intact femur, 3 mg/kg
[11] = ZnCl2 3 mg/kg, four weeks, normalized to intact femur, 3 mg/kg
[12] = ZnCl2 6.0 mg/kg local, normalized to intact femur
[13] = ZnCl2 10.0 mg/kg local, normalized to intact femur
[14] = Zn-high pellet 1.0 mg/kg, listed as zinc
[15] = Zn-low pellet 0.5 mg/kg, listed as zinc

## [Cl-].[Cl-].[Zn+2] [ZnCl2, Zinc Chloride]
Femur fractures [1]; ZnCl2 0.1 mg/kg local
  Effective Shear Modulus: 1.7×10^3 ± 3.3×10^2 MPa
  Effective Shear Stress: 61 ± 14 MPa
  Maximum Torque to Failure: 252 ± 13 Nmm
  Maximum Torsional Rigidity: 2.1×10^4 ± 4.2×10^3 Nmm^2/rad
Femur fractures [1]; [8]
  Percent Effective Shear Modulus: 34 ± 4%
  Percent Effective Shear Stress: 33 ± 14%
  Percent Maximum Torque to Failure: 57 ± 12%
  Percent maximum torsional rigidity: 87 ± 14%
Femur fractures [1]; ZnCl2 1.0 mg/kg local
  Effective Shear Modulus: 9.7×10^2 ± 3.6×10^2 MPa
  Effective Shear Stress: 44 ± 15 MPa
  Maximum Torque to Failure: 281 ± 86 Nmm
  Maximum Torsional Rigidity: 2.2×10^4 ± 2.7×10^3 Nmm^2/rad
Femur fractures [1]; [9]
  Percent Effective Shear Modulus: 32 ± 15%
  Percent Effective Shear Stress: 18 ± 8%
  Percent Maximum Torque to Failure: 65 ± 29%
  Percent maximum torsional rigidity: 55 ± 14%
Femur fractures [1]; ZnCl2 1.0 mg/kg
  effective shear stress, times higher than control: 1.6 x
Femur fractures [1]; ZnCl2 3.0 mg/kg local
  Effective Shear Modulus: 1.3×10^3 ± 6.4×10^2 MPa
  Effective Shear Stress: 55 ± 21^∗ MPa
  Maximum Torque to Failure: 369 ± 74 Nmm
  Maximum Torsional Rigidity: 3.1×10^4 ± 1.1×10^4 Nmm^2/rad
Femur fractures [1]; ZnCl2 3.0 mg/kg local, normalized to intact femur
  Percent Effective Shear Stress: 27 ± 17%
Femur fractures [1]; [10]
  Percent Effective Shear Modulus: 39.0% and 36 ± 10^∗ Percent
  Percent Maximum Torque to Failure: 82.0% and 82 ± 25^∗ Percent
  Percent maximum torsional rigidity: 97.0% and 97 ± 55^∗ Percent
Femur fractures [1]; ZnCl2 3.0 mg/kg
  effective shear stress, times higher than control: 2.2 x
Femur fractures [1]; [11]
  percent effective shear modulus, times higher than control group: 9.0 x and 8.0 x
  percent maximum torque to failure, times higher than control group: 2.04 x and 2.0 x
  percent torsional rigidity, times higher than control group: 3.85 x and 3.8 x
Femur fractures [1]; ZnCl2 6.0 mg/kg local
  Effective Shear Modulus: 1.1×10^3 ± 7.5×10^2 MPa
  Effective Shear Stress: 32 ± 25^∗ MPa
  Maximum Torque to Failure: 276 ± 190 Nmm
  Maximum Torsional Rigidity: 2.9×10^4 ± 1.6×10^4 Nmm^2/rad
Femur fractures [1]; [12]
  Percent Effective Shear Modulus: 18 ± 12%
  Percent Effective Shear Stress: 15 ± 10%
  Percent Maximum Torque to Failure: 38 ± 20%
  Percent maximum torsional rigidity: 62 ± 35%
Femur fractures [1]; ZnCl2 10.0 mg/kg (high dose), four weeks, normalized to intact femur
  Percent shear modulus, times greater than untreated saline group: 8.8 times
Femur fractures [1]; ZnCl2 10.0 mg/kg local
  Effective Shear Modulus: 3.0×10^3 ± 1.9×10^3∗ MPa
  Effective Shear Stress: 62 ± 30 MPa
  Maximum Torque to Failure: 254 ± 36 Nmm
  Maximum Torsional Rigidity: 3.6×10^4 ± 2.5×10^4 Nmm^2/rad
Femur fractures [1]; [13]
  Percent Effective Shear Stress: 27 ±11%
  Percent Maximum Torque to Failure: 41 ± 8%
  Percent maximum torsional rigidity: 73 ± 44%
Femur fractures [1]; ZnCl2 10.0 mg/kg local, normalized to intact femur, 10 mg/kg
  Percent Effective Shear Modulus: 36.0% and 39 ± 23^∗ Percent
Femur fractures [1]; ZnCl2 applied directly to the fracture site, instead of average eight to ten weeks in standard rat femur fracture model
  time in which fracture healing resolved: four to five weeks
Femur fractures [2]; 7 Day
  % Bone: 18.92 ± 5.97 ^∗ %
  % Cartilage: 4.64 ± 3.41%
Femur fractures [2]; 10 Day
  % Bone: 21.31 ± 5.40%
  % Cartilage: 12.79 ± 3.02%
Femur fractures [2]; 21 Day
  % Bone: 24.47 ± 3.53%
  % Cartilage: 11.57 ± 5.53%
[3]; 0.1 mg/kg
  % Weight gain: 15.3±11.5%
  Blood Glucose 12 Hours Post-Surgery: 87.0±7.1 ^a mg/dl
[3]; 1 mg/kg
  % Weight gain: 11.0±9.4%
  Blood Glucose 12 Hours Post-Surgery: 99.3±3.1 ^b mg/dl
[3]; 3 mg/kg
  % Weight gain: 6.9±11.7%
  Blood Glucose 12 Hours Post-Surgery: 105.0±4.4 ^b mg/dl
[3]; 6 mg/kg
  % Weight gain: 4.6±2.3%
  Blood Glucose 12 Hours Post-Surgery: 88.0±4.3 ^a mg/dl
[3]; 10 mg/kg
  % Weight gain: 4.2±2.0%
  Blood Glucose 12 Hours Post-Surgery: 87. 7±8. 5 ^a mg/dl
Femur fractures [4]; ZnCl2 1.0 mg/kg local
  Radiographic scoring, 4 Weeks Post-Fracture (# of cortices bridged): 3.0 ± 0.6 (n=3)
Femur fractures [4]; ZnCl2 3.0 mg/kg local
  Radiographic scoring, 4 Weeks Post-Fracture (# of cortices bridged): 3.3 ± 0.6^∗ (n=3)

## [Zn] [Zn]
[5]; Zn-high pellet 1.0 mg/kg
  Manual palpation: number graded A = fused: 4
  Manual palpation: number graded B = partially fused: 1
  Manual palpation: number graded C = not fused: 5
[5]; [14]
  Manual palpation: number graded A = fused: 4/10
  Manual palpation: number graded B = partially fused: 1/10
  Manual palpation: number graded C = not fused: 5/10
[5]; Zn-low pellet 0.5 mg/kg
  Manual palpation: number graded A = fused: 3
  Manual palpation: number graded B = partially fused: 4
  Manual palpation: number graded C = not fused: 3
[5]; [15]
  Manual palpation: number graded A = fused: 3/10
  Manual palpation: number graded B = partially fused: 4/10
  Manual palpation: number graded C = not fused: 3/10
[6]; Zn high dose pellet (1.0 mg/kg)
  Mean Bone Volume: 172.7 mm^3
[6]; Zn low dose pellet (0.5 mg/kg)
  Mean Bone Volume: 172.9 mm^3
[7]; Zn-high pellet 1.0 mg/kg
  Radiographs: number graded A = solid fusion mass bilaterally: 7
  Radiographs: number graded B = unilateral fusion mass: 3
  Radiographs: number graded C = small fusion mass bilaterally: 0
  Radiographs: number graded D = Graft resorption: 0
[7]; [14]
  Radiographs: number graded A = solid fusion mass bilaterally: 7/10
  Radiographs: number graded B = unilateral fusion mass: 3/10
  Radiographs: number graded C = small fusion mass bilaterally: 0/10
  Radiographs: number graded D = Graft resorption: 0/10
[7]; Zn-low pellet 0.5 mg/kg
  Radiographs: number graded A = solid fusion mass bilaterally: 7
  Radiographs: number graded B = unilateral fusion mass: 1
  Radiographs: number graded C = small fusion mass bilaterally: 2
  Radiographs: number graded D = Graft resorption: 0
[7]; [15]
  Radiographs: number graded A = solid fusion mass bilaterally: 7/10
  Radiographs: number graded B = unilateral fusion mass: 1/10
  Radiographs: number graded C = small fusion mass bilaterally: 2/10
  Radiographs: number graded D = Graft resorption: 0/10
